{"source": "patent US20100173991A1", "about": "“METHOD FOR THE SYNTHESIS OF A-RING AROMATIZED ACETYL MINOCYCLINES” (priority 2007, published 2010)", "key": {"[1]": {"system": "Astroglia cells, non neoplastic embryonal astrocyte cell line of the rat, damaged by H2O2", "type": "cell-based", "conditions": "30 min pre-incubation with 1.0, 5.0 or 25.0 μM, then 1.0 or 3.0 mM H2O2 for 2 hours; microscopic assessment of cell shape and mitochondria", "method": "The test of the cell-protecting properties of the substances produced in the inventive method was carried out, exemplarily for a pure form of pentaacetyl cyclin of Formula II, by means of an astrocyte damaging model. This model is used for the examination of neurodegenerative diseases caused by oxidative stress or for the test of cell-protecting substances that can avoid or reduce such damage. In the exemplary model astrocytes are damaged by hydrogen peroxide (H2O2) and afterwards the functionality and morphology of the cells and mitochondria are microscopically assessed. An overproduction of H2O2 as reactive oxygen species (ROS) is considered to be, amongst others, the cause for many neurodegenerative processes and diseases in the CNS, such as stroke, Alzheimer's disease Parkinson's disease, post-traumatic injuries of the brain and spinal cord. Astonishingly, already much lower doses of pentaacetyl cyclin of Formula II could considerably reduce the damage of the mitochondria compared to the comparative substance minocycline hydrochloride (Example 3 and FIG. 4).\nAstroglia cells, i.e. non neoplastic embryonal astrocyte cell line of the rat [Chamaon, K., Kirches, E., Kanakis, D., Braeuninger, S., Dietzmann, K., and Mawrin, C. (2005). […] A Zeiss Axiophot fluorescence microscope with CCD camera (AxioCam MRc) was used for the visual inspection and documentation. […]"}, "E. coli C 600 hfc strain": {"system": "E. coli C 600 hfc strain", "assay": "Antibiotic effect in the agar diffusion test", "type": "cell-based", "conditions": "filter paper sheets soaked with DMSO solutions 100 μM to 2.5 mM; LB agar, 37° C., 24 hours", "method": "The test of the antibiotic effect of the pentaacetyl cyclin obtained in the inventive method was performed by using an E. coli strain (Embodiment 4). […] The liquid culture (cultivated in LB-Lennox-L-Broth-Base for 24 hours) of an E. coli suspension (150 μl) of the C 600 hfc strain was evenly distributed on LB agar (Lennox-L-Agar, Gibco) by means of a sterile Drigalski spatula. Afterwards, sterile filter paper sheets (diameter 5.3 mm) that have been soaked with sterile DMSO solutions and different concentrations (100 μM to 2.5 mM) of minocycline hydrochloride or pentaacetyl cyclin (Formula II) were placed on the breeding ground. After the incubation of the agars at 37° C. for 24 hours, the antibiotic activity of the substances was assessed on the basis of the diameters of the inhibiting areolas that become visible due to the missing opacification by bacteria."}}, "note": "Structures can show the parent of a compound that is named as a salt.", "data": [{"molecule": "CN(C)c1ccc(O)c2c1C[C@H]1C[C@H]3[C@H](N(C)C)C(O)=C(C(N)=O)C(=O)[C@@]3(O)C(O)=C1C2=O", "note": "[minocycline hydrochloride, Minocycline hydrochloride, reference compound]", "values": [{"measurement": "concentration showing protective effect against H2O2-induced damage of cells/mitochondria", "setting": "[1]", "value": 25, "unit": "µM"}]}, {"molecule": "CC(=O)NC(=O)c1c(OC(C)=O)c2c(c(N(C)C)c1OC(C)=O)CC1Cc3c(N(C)C)ccc(OC(C)=O)c3C(=O)C1=C2OC(C)=O", "note": "(stereo not drawn) [pentaacetyl cyclin, A-ring aromatized pentaacetyl minocycline]", "values": [{"measurement": "concentration showing protective effect against H2O2-induced damage of cells/mitochondria", "setting": "[1]", "value": 1.0, "unit": "µM"}, {"measurement": "growth inhibition of E. coli (inhibiting areolas)", "setting": "E. coli C 600 hfc strain", "value": "does not show any growth inhibition"}]}]}
